Data: US8420591B2, “MUC1 and galectin-3” (Dana-Farber Cancer Institute, Inc., priority 2006, dated 2013)
Values belong to the compound of their own block, whether it stands above or below them. Where no end group is shown, it is not given here.

Tests used:
[1] = test system: MUC1 and EGFR interaction; assay: EGF-stimulated association of MUC1 and EGFR in ZR-75-1 cells (anti-MUC1-N precipitates immunoblotted); assay type: cell-based, human; conditions: EGF for 5 min, co-immunoprecipitation
Method: (§1) Cell culture. Human breast cancer (ZR-75-1, BT549) and lung cancer (CRL-5985, CRL-5909) cells were grown in RPMI1640 medium supplemented with 10% fetal bovine serum (FBS), 100 units/ml penicillin and 100 μg/ml streptomycin. The human breast cancer ([…], MCF-7), prostate cancer (LnCAP, DU145, PC3), lung cancer (A549), kidney epithelial (293) and Chinese hamster ovary (CHO-K1) cells were cultured in Dulbecco's Modified Eagle's medium (DMEM) supplemented with 10% FBS, antibiotics and 1 mM L-glutamine. The glycosylation deficient CHO-Lec2 and CHO-Lec8 cells (ATCC, Manassas, Va.) were grown in alpha minimum essential medium containing 10% FBS and antibiotics. In certain studies, cells were cultured in medium with 0.1% FBS for 24 hours and then stimulated with 100 ng/ml epidermal growth factor (EGF) (Calbiochem-Novabiochem, La Jolla, Calif.) for 5 minutes at 37° C.
Immunoblotting and precipitates. Lysates were prepared from subconfluent cells as described (Li et al., 2001). Immunoblot analysis was performed with antibodies specific for MUC1-C (Ab5; Neomarkers, Fremont, Calif.), galectin-3 (Abcam, Cambridge, Mass.), β-actin (Sigma-Aldrich, St. Louis, Mo.), epidermal growth factor receptor (EGFR) (Santa Cruz Biotechnology, Santa Cruz, Calif.), and MUC1-N (DF3) (Ren et al., 2004). Immune complexes were prepared as described with antibodies specific for MUC1-C and MUC1-N (Li et al., 1998). […]

[2] = test system: EGFR and MUC1 clustering; assay: Confocal microscopy of EGF-induced colocalization of EGFR and MUC1 in ZR-75-1 cells; assay type: cell-based, human; conditions: EGF for 5 min
Method: as §1
Immunofluorescence microscopy. Cells were fixed in 3.7% formaldehyde, permeabilized in 0.2% Triton™ X-100 and post-fixed in 3.7% formaldehyde. The cells were blocked with 10% normal goat serum and stained with antibodies specific for MUC1-N (MAb DF3) and antibodies specific for EGFR (Santa Cruz Biotechnology, Santa Cruz, Calif.), followed by fluorescein-conjugated antibodies specific for rabbit IgG or Texas Red-conjugated antibodies specific for mouse IgG (Jackson ImmunoResearch Laboratories, West Grove, Pa.). […]

[3] = target: T1, MUC1-C/ED (Homo sapiens, UniProt P15941); assay: In vitro binding assay: hFc-MUC1-C/ED incubated with GST-galectin-3 deletion mutants, glutathione pull-down; conditions: immunoblot anti-MUC1-C/ED
T1 construct: made in house; host or cells: CHO-K1
T1 sequence (P15941 1098-1155): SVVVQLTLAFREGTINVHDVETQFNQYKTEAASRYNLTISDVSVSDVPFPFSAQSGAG
Method: (§2) In vitro binding assays. hFc and hFc-MUC1-C/ED were incubated with purified galectin-3 in lysis buffer for 1 hour at 4° C. The reaction products were precipitated with protein G-Sepharose™ and immunoblotted with anti-galectin-3. In other studies, hFc-MUC1-C/ED was incubated with GST-galectin-3 deletion mutants. The reaction products were precipitated with glutathione-sepharose 4B and immunoblotted with anti-MUC1-C/ED (Ren et al., 2004).

[4] = test system: miR-322; assay: Galectin-3 mRNA stability assay after actinomycin D in transfected BT549/vector cells; assay type: cell-based, human; conditions: BT549/vector cells transfected with oligo, then actinomycin D; quantitative RT-PCR
Method: mRNA stability assays. […] Total RNA was isolated and analyzed for galectin-3 and GAPDH mRNA levels by quantitative RT-PCT. The half life of galectin-3 mRNA was calculated using linear regression analysis. Antisense inhibition of miR-322. An antisense 2'-O-methyl oligoribonucleotide […] NO:20) against miR-322 and a scrambled 2'-O-methyl oligoribonucleotide […] NO:21) (Integrated DNA Technologies) were transfected into BT549 cells (50 pmol/10,000 cells) in the presence of LipofectamineTM 2000. At 72 hours after transfection, the cells were analyzed for galectin-3 expression.

[5] = test system: miR-322; assay: Antisense inhibition of miR-322: galectin-3 expression in BT549/vector cells; assay type: cell-based, human; conditions: 72 h after transfection
Method: Immunoblotting and precipitates. Lysates were prepared from subconfluent cells as described (Li et al., 2001). Immunoblot analysis was performed with antibodies specific for MUC1-C (Ab5; Neomarkers, Fremont, Calif.), galectin-3 (Abcam, Cambridge, Mass.), β-actin (Sigma-Aldrich, St. Louis, Mo.), epidermal growth factor receptor (EGFR) (Santa Cruz Biotechnology, Santa Cruz, Calif.), and MUC1-N (DF3) (Ren et al., 2004). Immune complexes were prepared as described with antibodies specific for MUC1-C and MUC1-N (Li et al., 1998). For GST “pull-down” assays, GST or GST-galectin-3 was incubated with cell lysates for 2 hours at 4° C. and precipitated with glutathione-Sepharose™ 4B. Precipitates were subjected to immunoblotting with anti-MUC1-C, anti-galectin-3 (Santa Cruz Biotechnology, Santa Cruz, Calif.), anti-MUC1-N (DF3) (Ren et al., 2004), anti-EGFR (Santa Cruz Biotechnology), or anti-β-actin.
Quantitative real-time PCR. […] Quantification of galectin-3 transcripts was performed with primer pairs […] […] Relative gene expression was determined using the comparative ddCT (threshold) method with GAPDH as the internal control.
Antisense inhibition of miR-322. […] At 72 hours after transfection, the cells were analyzed for galectin-3 expression.

[6] = target: T2, galectin-3 (Homo sapiens, UniProt P17931); assay: Surface plasmon resonance (BIAcore): binding of MUC1-C/ED to immobilized galectin-3; conditions: galectin-3 immobilized on sensor chip, 25° C., 1:1 binding with a drifting base model, read-out: dissociation constant (KD) for binding to galectin-3
T2 construct: GST fusion proteins with full-length galectin-3 or certain deletion mutants were prepared; made in house; host or cells: E. coli
Method: (§3) Surface plasmon resonance analysis. Surface plasmon resonance measurements were determined using a BIACORE™ 3000 instrument at 25° C. Galectin-3 and galectin-3(63-250) were covalently coupled to CM5 Biacore™ sensor chips (500-1000 RU) at 30 μg/ml using the Biacore™ Amine Coupling kit. hFc-MUC1-C/ED and hFc diluted in running buffer (50 mM Tris-HCl, pH 7.4, 150 mM NaCl, 0.005% NP-40) were injected across galectin-3, galectin-3(63-250) or control flow cells at a rate of 30 μl/min. Regeneration of the sensor surface was performed with a 30-second pulse of 100 mM lactose. Association and dissociation kinetic constants were calculated by BIAevaluation™ software using 1:1 binding with a drifting base model.

[7] = target: T3, galectin-3(63-250) (Homo sapiens, UniProt P17931, T98P); assay: Surface plasmon resonance (BIAcore): binding of MUC1-C/ED to immobilized galectin-3(63-250); conditions: galectin-3(63-250) immobilized on sensor chip, 25° C., 1:1 binding with a drifting base model, read-out: dissociation constant (KD) for binding to galectin-3(63-250)
T3 construct: made in house; host or cells: E. coli
Method: as §3

[8] = target: T4, purified recombinant galectin-3 (Homo sapiens, UniProt P17931, P64H/T98P); assay: In vitro binding assay: hFc proteins incubated with purified galectin-3, protein G precipitation, anti-galectin-3 immunoblot; conditions: 1 hour at 4° C.; protein G-Sepharose precipitation
T4 construct: GST fusion proteins with full-length galectin-3 or certain deletion mutants were prepared; made in house; host or cells: E. coli
Method: as §2

T3 sequence (P17931 with tags, fused parts or gaps T98P): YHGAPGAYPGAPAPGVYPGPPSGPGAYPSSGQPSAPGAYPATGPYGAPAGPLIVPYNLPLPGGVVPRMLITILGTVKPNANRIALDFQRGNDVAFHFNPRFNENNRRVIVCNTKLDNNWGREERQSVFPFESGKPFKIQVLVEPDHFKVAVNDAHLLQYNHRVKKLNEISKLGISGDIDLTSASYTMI
T4 sequence (P17931 whole entry P64H/T98P, the tested form may be a part): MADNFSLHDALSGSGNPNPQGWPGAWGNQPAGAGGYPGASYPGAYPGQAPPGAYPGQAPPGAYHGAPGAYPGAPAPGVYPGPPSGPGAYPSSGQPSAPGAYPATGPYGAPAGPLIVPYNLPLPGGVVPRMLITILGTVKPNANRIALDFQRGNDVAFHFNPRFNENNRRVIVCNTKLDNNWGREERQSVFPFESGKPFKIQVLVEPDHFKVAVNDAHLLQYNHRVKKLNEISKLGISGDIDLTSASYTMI
T2 sequence (P17931 whole entry P64H/T98P, the tested form may be a part): as above

Compound: OC[C@H]1O[C@@H](O[C@H]2[C@H](O)[C@@H](O)C(O)O[C@@H]2CO)[C@H](O)[C@@H](O)[C@H]1O (stereo partly drawn) [lactose]
EGF-stimulated binding of MUC1 and EGFR [1]: attenuated | EGF-induced colocalization of EGFR and MUC1 in clusters [2]: blocked

Compound: OC[C@H]1O[C@@](CO)(O[C@H]2O[C@H](CO)[C@@H](O)[C@H](O)[C@H]2O)[C@@H](O)[C@@H]1O [sucrose]
EGF-stimulated binding of MUC1 and EGFR [1]: not sucrose | EGF-induced colocalization of EGFR and MUC1 in clusters [2]: not sucrose

Compound: GST-galectin-3(63-250): GST fusion of galectin-3 amino acids 63-250 that contains the CRD
binding of MUC1-C/ED to GST-galectin-3 fusion proteins (pull-down) [3]: pulled-down

Compound: anti-miR-322: antisense 2′-O-methyl oligoribonucleotide (GGUAUAGCAGCGCCUCACGUUUUG) (SEQ ID NO:20) against miR-322 (all 2'-O-methyl, backbone not given here)
half-life of galectin-3 transcripts [4]: 19.5 h | galectin-3 expression at the protein level ([5]; immunoblotting): upregulates | galectin-3 expression at the mRNA level ([5]; quantitative RT-PCR): upregulates

Compound: scrambled oligo: scrambled 2′-O-methyl oligoribonucleotide (CACGGAUCUAGGUCGUAACGUAGG) (SEQ ID NO:21), control (all 2'-O-methyl, backbone not given here) [reference compound]
half-life of galectin-3 transcripts [4]: 13.0 h

The remaining lines, values ahead:

binding of MUC1-C/ED to GST-galectin-3 fusion proteins (pull-down) [3]: no detectable binding
Compound: GST-galectin-3(1-62): GST fusion of galectin-3 deletion mutant 1-62 that includes the ND

binding of MUC1-C/ED to GST-galectin-3 fusion proteins (pull-down) [3]: no detectable binding
Compound: GST-galectin-3(1-138): GST fusion of galectin-3 deletion mutant 1-138 that includes the ND

binding of MUC1-C/ED to GST-galectin-3 fusion proteins (pull-down) [3]: pulled-down
Compound: GST-galectin-3: GST fusion protein with full-length galectin-3

Kd [6]: 11.1 nM | Kd [7]: 9.8 nM | binding of purified recombinant galectin-3 (immunoblot of adsorbates) [8]: binding of galectin-3 to hFc-MUC1-C/ED
Compound: hFc-MUC1-C/ED: MUC1-C extracellular domain (58 amino acids) fused to human Fc, secreted from CHO-K1 cells (SVVVQLTLAFREGTINVHDVETQFNQYKTEAASRYNLTISDVSVSDVPFPFSAQSGAG; not fully specified (N-terminus); also: fused to dimerising human Fc)
